Drawing on patent US20230357269A1 (LES LABORATOIRES SERVIER, priority 2020, published 2023), this text covers IC50 for 27 compounds.

In general, IC50 refers to the point on the concentration scale where inhibition reaches its midpoint.

This experiment concerns the target human recombinant LRRK2 protein (Homo sapiens (Human), UniProt Q5S007). The experiment can be described thus: LRRK2 Kinase Activity Assay (ADP-Glo). The experiment is classed as biochemical. As to conditions: LRRK2 wt; LRRKtide peptide and ATP substrates; 1h-incubation at 37° C. Here is the method: LRRK2 Kinase reactions were carried out in 384-well white polystyrene plates in a final volume of 6 μl using ADP-Glo™ Kinase Assay kit (Promega Corp.). Compound and substrates (LRRKtide peptide and ATP) in assay buffer were first dispensed in wells. Kinase reaction was then started by the addition of human recombinant LRRK2 protein. After 1h-incubation at 37° C., the enzymatic reaction was stopped by the addition of 6 μl of ADP-Glo Reagent-1 and an additional 40-minutes incubation at 23° C. (residual ATP depletion). A final 30-minutes incubation after 12 μL reagent-2 addition (ADP to ATP conversion and luciferin/luciferase reaction) was performed before luminescent signal acquisition (EnVision™ multimode plate reader-PerkinElmer, Inc.). Data from 10 individual concentrations of tested compounds (N=2) were fitted (XLfit™-ID Business Solutions Ltd) to deliver IC50s (compound concentration leading to 50% inhibition of reference enzymatic activity).
The compounds are dissolved to 5 mM in DMSO. When needed, solutions are sonicated in a bath sonicator.
Table 2 provides the IC50 values of the compounds according to the invention, obtained using the above-mentioned kinase assay. Activities are represented as +++, ++ and +, having the following meanings: • +++ means IC50<10 nM • ++ means 10 nM≤IC50<100 nM • + means 100 nM≤IC50<1 μM.

Molecules are shown by their SMILES. Where only a bound is given, the exact number is not on record here.

Sequence of human recombinant LRRK2 protein (Q5S007 whole entry): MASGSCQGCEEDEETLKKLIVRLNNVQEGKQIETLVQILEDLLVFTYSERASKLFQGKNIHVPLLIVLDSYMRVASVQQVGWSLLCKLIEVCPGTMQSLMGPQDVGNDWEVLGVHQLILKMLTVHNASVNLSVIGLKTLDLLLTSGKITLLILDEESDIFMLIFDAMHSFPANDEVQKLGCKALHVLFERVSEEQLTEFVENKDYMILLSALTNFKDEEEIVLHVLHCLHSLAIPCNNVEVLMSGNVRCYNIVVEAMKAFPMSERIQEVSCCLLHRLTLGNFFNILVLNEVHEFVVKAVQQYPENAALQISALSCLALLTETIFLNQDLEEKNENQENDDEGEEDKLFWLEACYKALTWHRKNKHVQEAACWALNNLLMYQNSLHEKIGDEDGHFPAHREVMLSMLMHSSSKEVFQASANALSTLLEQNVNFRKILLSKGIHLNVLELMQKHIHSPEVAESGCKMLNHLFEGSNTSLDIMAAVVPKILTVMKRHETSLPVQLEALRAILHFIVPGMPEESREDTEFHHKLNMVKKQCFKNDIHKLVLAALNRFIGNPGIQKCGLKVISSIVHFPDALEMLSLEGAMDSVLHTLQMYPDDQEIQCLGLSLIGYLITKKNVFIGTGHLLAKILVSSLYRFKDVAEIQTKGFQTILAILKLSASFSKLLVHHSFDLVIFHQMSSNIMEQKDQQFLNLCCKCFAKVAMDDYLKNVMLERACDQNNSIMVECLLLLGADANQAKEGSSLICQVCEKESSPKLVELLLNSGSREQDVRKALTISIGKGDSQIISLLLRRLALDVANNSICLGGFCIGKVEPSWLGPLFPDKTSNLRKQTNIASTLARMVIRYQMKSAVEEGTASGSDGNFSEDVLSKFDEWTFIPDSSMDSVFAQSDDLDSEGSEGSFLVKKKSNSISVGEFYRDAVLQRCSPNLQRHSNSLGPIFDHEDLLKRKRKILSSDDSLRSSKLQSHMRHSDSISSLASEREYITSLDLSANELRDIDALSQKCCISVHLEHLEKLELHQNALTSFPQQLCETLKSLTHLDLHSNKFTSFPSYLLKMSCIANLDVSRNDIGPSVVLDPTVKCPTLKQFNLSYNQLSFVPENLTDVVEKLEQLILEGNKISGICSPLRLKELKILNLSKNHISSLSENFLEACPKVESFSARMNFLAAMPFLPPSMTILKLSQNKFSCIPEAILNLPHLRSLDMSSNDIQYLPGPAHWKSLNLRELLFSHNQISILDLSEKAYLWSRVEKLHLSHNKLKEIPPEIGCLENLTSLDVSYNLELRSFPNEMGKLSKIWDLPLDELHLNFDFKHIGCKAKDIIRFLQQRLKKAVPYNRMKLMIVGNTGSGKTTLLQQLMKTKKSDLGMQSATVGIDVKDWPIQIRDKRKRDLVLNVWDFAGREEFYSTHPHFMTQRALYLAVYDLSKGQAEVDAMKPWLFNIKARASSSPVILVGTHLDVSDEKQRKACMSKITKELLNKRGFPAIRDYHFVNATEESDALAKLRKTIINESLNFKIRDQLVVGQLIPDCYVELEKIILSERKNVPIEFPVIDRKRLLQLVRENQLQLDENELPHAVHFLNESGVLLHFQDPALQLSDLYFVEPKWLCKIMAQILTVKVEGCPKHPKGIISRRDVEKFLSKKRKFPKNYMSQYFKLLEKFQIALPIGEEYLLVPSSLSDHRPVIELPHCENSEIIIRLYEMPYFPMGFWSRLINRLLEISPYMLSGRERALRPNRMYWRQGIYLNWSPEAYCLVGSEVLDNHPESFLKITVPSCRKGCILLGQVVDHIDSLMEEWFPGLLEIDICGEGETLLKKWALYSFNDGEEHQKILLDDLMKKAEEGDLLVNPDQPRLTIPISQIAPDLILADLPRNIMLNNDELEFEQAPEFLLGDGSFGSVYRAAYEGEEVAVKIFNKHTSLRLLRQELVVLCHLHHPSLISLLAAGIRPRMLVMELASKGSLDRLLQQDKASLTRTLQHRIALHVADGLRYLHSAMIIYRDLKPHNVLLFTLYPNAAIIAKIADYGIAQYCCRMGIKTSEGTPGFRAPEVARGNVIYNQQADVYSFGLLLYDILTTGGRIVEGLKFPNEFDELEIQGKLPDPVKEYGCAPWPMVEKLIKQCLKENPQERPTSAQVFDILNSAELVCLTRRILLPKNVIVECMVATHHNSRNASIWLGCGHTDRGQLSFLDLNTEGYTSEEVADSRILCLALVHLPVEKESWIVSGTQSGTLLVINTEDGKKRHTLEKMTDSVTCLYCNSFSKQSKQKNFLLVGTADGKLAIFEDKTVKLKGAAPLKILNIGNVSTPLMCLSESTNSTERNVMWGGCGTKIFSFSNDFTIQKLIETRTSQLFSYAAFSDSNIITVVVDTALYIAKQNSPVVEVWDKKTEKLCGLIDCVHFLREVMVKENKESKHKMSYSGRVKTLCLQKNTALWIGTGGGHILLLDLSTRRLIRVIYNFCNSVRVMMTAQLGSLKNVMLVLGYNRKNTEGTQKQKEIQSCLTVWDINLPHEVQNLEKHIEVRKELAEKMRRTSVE

`N#CC1CCN(c2cc3cc(c2)-c2n[nH]c4ccc(cc24)OCCCNC(=O)OC3)CC1` [Example 33, 1-{9-oxo-8,14-dioxa-10,19,20-triazatetracyclo[13.5.2.1^2,6.0^18,21]tricosa-1(20),2,4,6(23),15,17,21-heptaen-4-yl}piperidine-4-carbonitrile]: the IC50 is < 10 nM.
Next, `O=C1NCC(F)(F)COc2ccc3[nH]nc(c3c2)-c2cncc(n2)CO1` [Example 170, 12,12-difluoro-8,14-dioxa-4,10,19,20,23-pentaazatetracyclo[13.5.2.1^2,6.0^18,21]tricosa-1(20),2(23),3,5,15(22),16,18(21)-heptaen-9-one]: < 10 nM; `COCCC1CCN(c2cc3cc(c2)-c2n[nH]c4ccc(cc24)OCCCNC(=O)OC3)CC1` [Example 23, 4-[4-(2-methoxyethyl)piperidin-1-yl]-8,14-dioxa-10,19,20-triazatetracyclo[13.5.2.1^2,6.0^18,21]tricosa-1(20),2,4,6(23),15,17,21-heptaen-9-one]: < 10 nM; `O=C1NCCCOc2ccc3[nH]nc(c3c2)-c2cnn(n2)CCO1` [Example 166, 8,14-dioxa-4,5,10,19,20,23-hexaazatetracyclo[13.5.2.1^2,5.0^18,21]tricosa-1(20),2(23),3,15(22),16,18(21)-hexaen-9-one]: < 10 nM.
For `CC1CCNC(=O)OCc2cc(F)cc(c2)-c2n[nH]c3ccc(cc23)O1` (stereo not drawn) [Example 71, 4-fluoro-13-methyl-8,14-dioxa-10,19,20-triazatetracyclo[13.5.2.1^2,6.0^18,21]tricosa-1(20),2,4,6(23),15,17,21-heptaen-9-one], the IC50 is < 10 nM.
On to `O=C1NCC(F)(F)COc2ccc3[nH]nc(c3c2)-c2cccc(c2)CO1` [Example 152, 12,12-difluoro-8,14-dioxa-10,19,20-triazatetracyclo[13.5.2.1^2,6.0^18,21]tricosa-1(20),2(23),3,5,15(22),16,18(21)-heptaen-9-one], for which the concentration for half-maximal inhibition (IC50) was < 10 nM.
The same measure for `O=C1NCCCOc2ccc3[nH]nc(c3c2)-c2cc(cc(C3CCOC3)c2)CO1` (stereo not drawn) [Example 61, 4-(oxolan-3-yl)-8,14-dioxa-10,19,20-triazatetracyclo[13.5.2.1^2,6.0^18,21]tricosa-1(20),2,4,6(23),15,17,21-heptaen-9-one]: < 10 nM; for `Cc1cc2cc(c1)-c1n[nH]c3ccc(cc13)OCCCNC(=O)OC2` [Example 18, 4-methyl-8,14-dioxa-10,19,20-triazatetracyclo[13.5.2.1^2,6.0^18,21]tricosa-1(20),2,4,6(23),15,17,21-heptaen-9-one]: < 10 nM.
Next, `C[C@@H]1CCNC(=O)OCc2cc(Cl)cc(n2)-c2n[nH]c3ccc(cc23)O1` [Example 125, (13R)-4-chloro-13-methyl-8,14-dioxa-10,19,20,23-tetraazatetracyclo[13.5.2.1^2,6.0^18,21]tricosa-1(20),2(23),3,5,15(22),16,18(21)-heptaen-9-one]: < 10 nM.
The same measure for `CC(C)C1COC(=O)NCCCOc2ccc3[nH]nc(c3c2)-c2cnn1c2` (stereo not drawn) [Example 112, 6-(propan-2-yl)-8,14-dioxa-4,5,10,19,20-pentaazatetracyclo[13.5.2.1^2,5.0^18,21]tricosa-1(20),2(23),3,15(22),16,18(21)-hexaen-9-one]: 10 to 100 nM.
For the compound `CN1CCN(c2ccc3cc2COC(=O)NCCCOc2ccc4[nH]nc-3c4c2)CC1` [Example 49, 5-(4-methylpiperazin-1-yl)-8,14-dioxa-10,19,20-triazatetracyclo[13.5.2.1^2,6.0^18,21]tricosa-1(20),2,4,6(23),15,17,21-heptaen-9-one], the IC50 lay in the range of 10 to 100 nM.
The same measure for `O=C1NCCCOc2ccc3[nH]nc(c3c2)-c2cnn(c2)CCO1` [Example 51, 8,14-dioxa-4,5,10,19,20-pentaazatetracyclo[13.5.2.1^2,5.0^18,21]tricosa-1(20),2(23),3,15(22),16,18(21)-hexaen-9-one]: < 10 nM.
Next, `COCC1CCOc2ccc3[nH]nc(c3c2)-c2cccc(c2)COC(=O)N1` (stereo not drawn) [Example 83, 11-(methoxymethyl)-8,14-dioxa-10,19,20-triazatetracyclo[13.5.2.1^2,6.0^18,21]tricosa-1(20),2(23),3,5,15(22),16,18(21)-heptaen-9-one]: < 10 nM.
For `Cc1cc2nc(n1)COC(=O)NCC[C@@H](C)Oc1ccc3[nH]nc-2c3c1` [Example 148, (13R)-4,13-dimethyl-8,14-dioxa-5,10,19,20,23-pentaazatetracyclo[13.5.2. 1^2,6.0^18,21]tricosa-1(20),2(23),3,5,15(22),16,18(21)-heptaen-9-one], the IC50 was < 10 nM.
Regarding `Cn1ccc(-c2cc3cc(c2)-c2n[nH]c4ccc(cc24)OCCCNC(=O)OC3)n1` [Example 64, 4-(1-methyl-1H-pyrazol-3-yl)-8,14-dioxa-10,19,20-triazatetracyclo[13.5.2.1^2,6.0^18,21]tricosa-1(20),2(23),3,5,15(22),16,18(21)-heptaen-9-one], the IC50 is < 10 nM.
Next, `O=C1NCCCOc2ccc3[nH]nc(c3c2)-c2cc(cc(C3=CCN(C4COC4)CC3)c2)CO1` [Example 57, 4-[1-(oxetan-3-yl)-1,2,3,6-tetrahydropyridin-4-yl]-8,14-dioxa-10,19,20-triazatetracyclo[13.5.2.1^2,6.0^18,21]tricosa-1(20),2,4,6(23),15,17,21-heptaen-9-one]: < 10 nM; `C[C@@H]1OC(=O)NCCCOc2ccc3[nH]nc(c3c2)-c2cccc1c2` [Example 65, (7S)-7-methyl-8,14-dioxa-10,19,20-triazatetracyclo[13.5.2.1^2,6.0^18,21]tricosa-1(20),2(23),3,5,15(22),16,18(21)-heptaen-9-one]: 10 to 100 nM.
Next, `O=C1NCCCOc2ccc3[nH]nc(c3c2)-c2cc(cc(CN3CCOCC3)c2)CO1` [Example 41, 4-[(morpholin-4-yl)methyl]-8,14-dioxa-10,19,20-triazatetracyclo[13.5.2.1^2,6.0^18,21]tricosa-1(20),2,4,6(23),15,17,21-heptaen-9-one]: < 10 nM; `CC1CCNC(=O)OCc2cc(F)cc(c2)-c2n[nH]c3ccc(cc23)O1` (single isomer, unassigned) [Example 100, (13R) or (13S)-4-fluoro-13-methyl-8,14-dioxa-10,19,20-triazatetracyclo[13.5.2.1^2,6.0^18,21]tricosa-1(20),2(23),3,5,15(22),16,18(21)-heptaen-9-one]: < 10 nM; `O=C1NC[C@H](F)COc2ccc3[nH]nc(c3c2)-c2cccc(c2)CO1` [Example 169, (12S)-12-fluoro-8,14-dioxa-10,19,20-triazatetracyclo[13.5.2.1^2,6.0^18,21]tricosa-1(20),2(23),3,5,15(22),16,18(21)-heptaen-9-one]: < 10 nM.
Next, `C[C@@H]1CCNC(=O)OCc2ccnc(n2)-c2n[nH]c3ccc(cc23)O1` [Example 140, (13R)-13-methyl-8,14-dioxa-3,10,19,20,23-pentaazatetracyclo[13.5.2.1^2,6.0^18,21]tricosa-1(20),2,4,6(23),15,17,21-heptaen-9-one]: 10 to 100 nM.
In the case of `CN1CCCOc2ccc3[nH]nc(c3c2)-c2cncc(c2)COC1=O` [Example 2, 10-methyl-8,14-dioxa-4,10,19,20-tetraazatetracyclo[13.5.2.1^2,6.0^18,21]tricosa-1(20),2,4,6(23),15,17,21-heptaen-9-one], the IC50 was in the range of 10 to 100 nM.
Consider `COCCN1CCN(c2cc3cc(c2)-c2n[nH]c4ccc(cc24)OCCCNC(=O)OC3)CC1` [Example 46, 4-[4-(2-methoxyethyl)piperazin-1-yl]-8,14-dioxa-10,19,20-triazatetracyclo[13.5.2.1^2,6.0^18,21]tricosa-1(20),2,4,6(23),15,17,21-heptaen-9-one], for which the concentration for half-maximal inhibition (IC50) was < 10 nM.
Next, `C[C@@H]1CCNC(=O)OCCn2ncc(n2)-c2n[nH]c3ccc(cc23)O1` [Example 159, (13R)-13-methyl-8,14-dioxa-4,5,10,19,20,23-hexaazatetracyclo[13.5.2.1^2,5.0^18,21]tricosa-1(20),2(23),3,15,17,21-hexaen-9-one]: < 10 nM.
Turning to `Cc1cc2[nH]nc3c2cc1O[C@H](C)CCNC(=O)OCc1cccc-3c1` [Example 139, (13R)-13,16-dimethyl-8,14-dioxa-10,19,20-triazatetracyclo[13.5.2.1^2,6.0^18,21]tricosa-1(20),2,4,6(23),15,17,21-heptaen-9-one], the 50% inhibitory concentration (IC50) was < 10 nM.
Next, `O=C1NCCCOc2ccc3[nH]nc(c3c2)-c2cc(cc(N3CC[C@@H](O)C3)c2)CO1` [Example 25, 4-[(3R)-3-hydroxypyrrolidin-1-yl]-8,14-dioxa-10,19,20-triazatetracyclo[13.5.2.1^2,6.0^18,21]tricosa-1(20),2,4,6(23),15,17,21-heptaen-9-one]: < 10 nM.
Next, `O=C1NCCCOc2ccc3[nH]nc(c3c2)-c2cc(cc(N3CCCCC3)c2)CO1` [Example 36, 4-(piperidin-1-yl)-8,14-dioxa-10,19,20-triazatetracyclo[13.5.2.1^2,6.0^18,21]tricosa-1(20),2,4,6(23),15,17,21-heptaen-9-one]: < 10 nM.
